Measurements published in patent publication US20100324142A1, “HYDROCORTISONE DERIVATIVES AND USE THEREOF FOR THERAPEUTIC OR COSMETIC INDICATIONS” (priority 2007, published 2010).

System: physiopathological hair loss of unknown cause (patients suffering from alopecia)
Experiment: Double blind clinical trial on two hundred patients suffering from alopecia
Type: in vivo, human
Protocol: Clinical Trial (Double Blind) on Two Hundred Patients Suffering from Alopecia
The action of the compound according to the invention, produced as described in Example 1, was assessed on a sample population of two hundred people, half of whom were of the female sex. All the persons included in the sample had been affected for at least four months by physiopathological hair loss of unknown cause.
A double blind trial was set up, in which one hundred patients were administered with a solution containing the compound according to the invention in bidistilled water and one hundred received a placebo solution. The solution according to the invention contained as excipients: sodium hydroxide, benzyl benzoate and benzalkonium chloride.

Question: `CC1(CCC(=O)O)C(=O)CCC2C1C(O)CC1(C)C2CCC1(O)C(=O)CO` (stereo not drawn) [compound according to the invention, 3-[3,5-dihydroxy-3-(2-hydroxy-acetyl)-3a,6-dimethyl-7-oxo-dodecahydro-cyclo-penta[α]naphtalen-6-yl]-propionic acid] was tested. Which “patients with good hair regrowth observed” value (at the end of the trial, solution of the compound in bidistilled water, one hundred treated patients) did it give?
Answer: Its value is 38%.

Question: And the adverse side effects (even after many months of treatment)?
Answer: The adverse side effects was “total absence of adverse side effects”.

Question: And the “subjects in whom hair loss was arrested” value (within the first week of treatment, solution of the compound in bidistilled water, one hundred treated patients, double blind vs placebo)?
Answer: The value was 94%.
